In patent publication US20220331303A1, “USE OF AN OREXIN 2 RECEPTOR AGONIST FOR THE TREATMENT OF EXCESSIVE SLEEPINESS” (Takeda Pharmaceutical Company Limited, priority 2019, published 2022):
Where two headings read alike, the source gives them in different places.

Experiments:
[1] = Single-dose plasma PK of Compound A in subjects with OSA; assay type: in vivo, human; settings: for half-life: read-out: t½, z (converted)
Method: (§1) The treatment periods began on Day 1 of Treatment Period 1 (Study Day 1) with Treatment Periods 2 and 3 commencing on Study Days 3 and 5, respectively. In the morning of Day 1 of Treatment Period 1, eligible subjects were randomized to 1 of the 6 sequence groups as listed in Table 36. After randomization, the subject was dosed in 3 treatment periods according to the order defined by the sequence group to which he/she was randomized. On Day 1 of each treatment period, Compound A or placebo was administered as a single 9-hour IV infusion commencing at approximately 08:00. The infusion was terminated at approximately 17:00. On Day 1 of each treatment period, four 40-minute maintenance of wakefulness test (MWT) sessions was performed at 2, 4, 6, and 8 hours after the start of the infusion. Subjects were required to stay awake in between the MWT sessions.
On Day 1 of Treatment Period 1, all eligible subjects were randomized and received the first dose of study drug. Compound A or placebo was administered as a single 9-hour IV infusion commencing at approximately 08:00. On each dosing day (Study Days 1, 3, and 5), 40-minute MWT sessions were performed at 2, 4, 6, and 8 hours after the start of the infusion. There was a minimum 24-hour washout interval between the end of the infusion and the commencement of treatment in subsequent treatment periods to allow for complete elimination of the preceding treatment effect. The KSS and PVT were collected per the Schedule of Study Procedures. Blood samples for determination of Compound A plasma concentrations were collected predose and at specified time points postdose, Safety assessments were recorded. During the study, AEs were recorded, clinical laboratory tests, vital signs, and safety ECGs were obtained. Study Days 2, 4, and 6 were washout days. Subjects were discharged from the unit following completion of study exit procedures in the afternoon of Study Day 6 (Day 2 of Treatment Period 3). Subjects were contacted by telephone approximately 7 days (±2 days) following unit discharge for a safety check.
Blood samples used for PK analysis of Compound A was collected according to Table 38.

[2] = system: subjects with obstructive sleep apnea; assay: MWT in subjects with OSA experiencing EDS despite CPAP; assay type: in vivo, human; settings: single 9-hour IV infusion
Method: as §1
On Day 1 of Treatment Period 1, all eligible subjects were randomized and received the first dose of study drug. Compound A or placebo was administered as a single 9-hour IV infusion commencing at approximately 08:00. […] Blood samples for determination of Compound A plasma concentrations were collected predose and at specified time points postdose, Safety assessments were recorded. During the study, AEs were recorded, clinical laboratory tests, vital signs, and safety ECGs were obtained. […]

[3] = human, intravenous, 44 mg single dose, subjects with OSA, plasma, mean (PK set)
[4] = human, intravenous, 112 mg single dose, subjects with OSA, plasma, mean (PK set)

Plasma Concentration Mean ([1]; 44 mg, 0 h After Start of Infusion): BLQ
Plasma Concentration Mean ([1]; 44 mg, 0.17 h From End of Infusion): 53.69 ng/mL
Plasma Concentration Mean ([1]; 44 mg, 1 h After Start of Infusion): 59.80 ng/mL
Plasma Concentration Mean ([1]; 44 mg, 1 h From End of Infusion): 29.90 ng/mL
Plasma Concentration Mean ([1]; 44 mg, 3 h After Start of Infusion): 92.43 ng/mL
Plasma Concentration Mean ([1]; 44 mg, 4 h From End of Infusion): 15.22 ng/mL
Plasma Concentration Mean ([1]; 44 mg, 5 h After Start of Infusion): 101.7 ng/mL
Plasma Concentration Mean ([1]; 44 mg, 7 h After Start of Infusion): 86.37 ng/mL
Plasma Concentration Mean ([1]; 44 mg, 9 h After Start of Infusion): 90.42 ng/mL
Plasma Concentration Mean ([1]; 44 mg, 15 h From End of Infusion (24 hours from start of infusion)): 2.462 ng/mL
Ceoi ([1]; 112 mg single dose, subjects with OSA, plasma, mean (PK set)): 211.6 ng/mL
Plasma Concentration Mean ([1]; 112 mg, 0 h After Start of Infusion): BLQ
Plasma Concentration Mean ([1]; 112 mg, 0.17 h From End of Infusion): 139.3 ng/mL
Plasma Concentration Mean ([1]; 112 mg, 1 h After Start of Infusion): 162.9 ng/mL
Plasma Concentration Mean ([1]; 112 mg, 1 h From End of Infusion): 77.87 ng/mL
Plasma Concentration Mean ([1]; 112 mg, 3 h After Start of Infusion): 208.7 ng/mL
Plasma Concentration Mean ([1]; 112 mg, 4 h From End of Infusion): 34.12 ng/mL
Plasma Concentration Mean ([1]; 112 mg, 5 h After Start of Infusion): 222.3 ng/mL
Plasma Concentration Mean ([1]; 112 mg, 7 h After Start of Infusion): 208.9 ng/mL
Plasma Concentration Mean ([1]; 112 mg, 9 h After Start of Infusion): 211.6 ng/mL
Plasma Concentration Mean ([1]; 112 mg, 15 h From End of Infusion (24 hours from start of infusion)): 5.962 ng/mL
AUC(0-inf) [1, 3]: 899 ng·h/mL
AUC(0-t) [1, 3]: 884 ng·h/mL
Cmax [1, 3]: 102 ng/mL
clearance [1, 3]: 860 mL/min
concentration at 9 h ([1]; human, intravenous, 44 mg single dose, subjects with OSA, plasma, mean (PK set), read-out: Ceoi): 90.4 ng/mL
half-life [1, 3]: 3.79 h
AUC(0-inf) [1, 4]: 2060 ng·h/mL
AUC(0-t) [1, 4]: 2040 ng·h/mL
Cmax [1, 4]: 230 ng/mL
clearance [1, 4]: 954 mL/min
half-life [1, 4]: 3.93 h
Vd ([1]; human, plasma, intravenous, 44 mg, 44 mg single dose, subjects with OSA, plasma, mean (PK set), read-out: Vss): 129 L
Vd ([1]; human, plasma, intravenous, 44 mg, 44 mg single dose, subjects with OSA, plasma, mean (PK set), read-out: Vz): 278 L
Vd ([1]; human, plasma, intravenous, 112 mg, 112 mg single dose, subjects with OSA, plasma, mean (PK set), read-out: Vss): 139 L
Vd ([1]; human, plasma, intravenous, 112 mg, 112 mg single dose, subjects with OSA, plasma, mean (PK set), read-out: Vz): 319 L
SMILES: COC(=O)N1CCC[C@H](NS(C)(=O)=O)[C@@H]1CO[C@H]1CC[C@@H](c2ccccc2)CC1 [Compound A, methyl (2R,3S)-3-((methylsulfonyl)amino)-2-(((cis-4-phenylcyclohexyl)oxy)methyl)piperidine-1-carboxylate]
Mean placebo-adjusted increase in sleep latency in the MWT ([2]; Compound A 44 mg): 22 min
Mean placebo-adjusted increase in sleep latency in the MWT ([2]; Compound A 112 mg): 28 min
